Assay results from patent US6500813B1, “Ophthalmic composition containing active vitamin D” (priority 1995, dated 2002).

Tests used:
laser-irradiated cornea = experiment: Test Example 3: corneal turbidity rating after excimer laser (PTK) irradiation in rabbits; type: in vivo, Japan white rabbits; conditions: 10^−7% solution, 20 μl/dose, 3 times/day over 14 days
Protocol: In this test, 8 Japan white rabbits each weighing 2 kg were used. A laser beam was focused on the corneal center of the right eye of each animal using an excimer laser oscillator (available from Summit Technology Co. U.S.) under anesthesia. The laser beam irradiation was carried out according to the surface-incision mode (PTK), i.e., at an energy density of 165 mj/cm^2, a rate of incision to a depth of 0.25 μm/pulse, a diameter of the incised circular area of 4.5 mm and an irradiated pulse number of 300.
These 8 test animals which had been irradiated with the laser beam were, at random, divided into two groups each comprising 4 animals, one of which constituted a drug-administered group and the other of which constituted a control group. […]
After 24 hours from the laser irradiation, the drug-administered group and the control-group were treated by dropping, in the right eye, a 10^−7% active vitamin D-containing solution [22-oxa-1β,25-dihydroxy vitamin D3: OCT (available from Chugai Pharmaceutical Co., Ltd.)] and the OCT solvent base, respectively, at 20 μl/dose and 3 times/day over 14 days. After 7 and 15 days from the irradiation, the extent of the turbidity of each cornea was evaluated on the basis of the findings for the 8 animals observed under a slit lamp microscope. […]

[1] = tested on: laser-irradiated cornea (corneal epithelial cells); experiment: Test Example 1: excimer laser (PTK) corneal incision in rabbits, slit lamp and light microscope observation; type: in vivo, Japan white rabbits
Protocol: In this test, 6 Japan white rabbits each weighing 2 kg were used. After anesthetizing each animal by intramuscularly injecting an analgesic-anesthetic at the femoral regions thereof and by simultaneously dropping local anesthetic in the eyes, a laser beam was focused on the corneal center of the right eye using an excimer laser oscillator (available from Summit Technology Co. U.S.). The laser beam irradiation was carried out according to the surface-incision mode (PTK), i.e., at an energy density of 165 mj/cm^2, a rate of incision to a depth of 0.25 μm/pulse, an incised surface diameter of 4.5 mm and a pulse number of 300.
After the laser beam irradiation, an eye drop and an ointment containing an antibiotic agent were administered to the eye. Three (Group A) out of these six animals were treated by dropping, in the right eye, an active vitamin D-containing solution (1 α-monohydroxy vitamin D: 0.01 μg/drop or 0.5 μg/ml; an alpha calcidol solution) in a rate of one drop (0.02 ml)/dose/day, starting from 24 hours after the laser beam irradiation. On the other hand, the remaining three (Group B) out of these six animals constituted a control group and were treated in the same manner by dropping, in the right eye, an ophthalmic buffer solution BSS at a rate of one drop/dose/day.
After 4, 7 and 12 days from the laser beam irradiation, the right eyes of animals in Group A and Group B (one animal each) were observed under a slit lamp microscope, followed by slaughtering one animal in each Group and then enucleation of the eyeballs. The cornea was removed from the sclerocornea of each eyeball, followed by fixing through immersion in a Carnoa's solution for 4 hours, dehydration in dry ethanol, paraffin-embedded to form a corneal slice with a thickness of 4 μm, removing paraffin by xylol, carrying out the hematoxylin-eosin staining and/or PAS staining and observation of the corneal slice under a light microscope.

[2] = tested on: lens capsule, aqueous humor and intraocular lens; experiment: Test Example 2: lens removal by ultrasonic emulsification and aspiration with intraocular lens transplantation in rabbits, slit lamp observation of turbidity; type: in vivo, Japan white house rabbits; conditions: for fibrin deposition in the anterior chamber: versus sesame oil control (animal C)
Text: In this test, three Japan white house rabbits each weighing 2 kg were used. After anesthetizing each animal by intramuscularly injecting an analgesic-anesthetic at the femoral regions thereof and by simultaneously dropping a local anesthetic in the eyes, the sclerocornea of each animal was dissected over a length of 3.5 mm, followed by excising a circular piece of the arterior capsule at a diameter of about 5 mm from the lens capsule under perfusion of the ophthalmic buffer solution BSS, removal of the lens nuclei and the cortex by the ultrasonic emulsification and aspiration technique, swelling the lens capsule by injecting a viscoelastic substance, then widening the incised port of the sclerocornea to about 7 mm and transplantation, into the lens capsule, of a poly(methyl methacrylate) intraocular lens provided with an optical part having a diameter of 6 mm. After the removal of the viscoelastic substance under vacuum suction, the incised wound of the sclerocornea was sutured with three stitches using a 9-0 nylon suture to thus complete the operation. After the completion of the operation, an eye drop and an ointment containing an antibiotic agent were administered to the conjunctiva. The right eyes of these three animals were subjected to the ultrasonic emulsification and aspiration technique and the transplantation of an intraocular lens.
One (A) out of these three animals was treated with a calcitriol solution in a rate of 1 to 2 drops/dose/day. The calcitriol solution used was prepared by dissolving and diluting calcitriol (1α,25-dihydroxy vitamin D) in ethanol and then further diluting (1:100) the resulting dilute solution, to a calcitriol concentration of 0.5 μg/ml, with an ophthalmic oil base consisting of purified sesame oil. One (B) out of the three animals was treated by orally administering the calcitriol solution in a rate of 1 ml/dose/day using a dropping pipette. The remaining one (C) out of the three animals was treated by dropping ophthalmic purified sesame oil free of any calcitriol in the right eye in a rate of 1 to 2 drops/dose/day. After the mydriasis at 1, 4, 7, 14 and 28 days from the operation, the lens capsule, aqueous humor and intraocular lens for each animal were inspected for the turbidity through the observation under a slit lamp microscope.

[3] = animal A, eye drop, after 7 days from the operation

Structure (SMILES): C=C1/C(=C\C=C2/CCC[C@]3(C)[C@@H]([C@H](C)OCCC(C)(C)O)CC[C@@H]23)C[C@@H](O)C[C@@H]1O [OCT, 22-oxa-1β,25-dihydroxy vitamin D3]
- degree of turbidity relative to that observed for the control group (laser-irradiated cornea): about ½
- degree of corneal turbidity, rating 0 (no turbidity) to 4 (complete opacification), average of four animals (laser-irradiated cornea; right eye, evaluated after 7 and 15 days, control group 3.5): 2.0

Structure (SMILES): C=C1/C(=C\C=C2/CCC[C@]3(C)[C@@H]([C@H](C)CCCC(C)C)CC[C@@H]23)C[C@@H](O)C[C@@H]1O [alpha calcidol, 1α-monohydroxy vitamin D]
- opacity of the laser-irradiated site under the slit lamp microscope ([1]; Group A, right eye, eye drop 0.01 μg/drop (0.5 μg/ml), one drop/dose/day from 24 hours after irradiation, observed after 4, 7 and 12 days, versus BSS control (Group B)): quite slight opacity at the peripheral edge of the laser-irradiated site
- piling up growth of the corneal epithelial cells, sliced cornea under a light microscope ([1]; Group A, right eye, eye drop 0.01 μg/drop, one drop/dose/day, control Group B ran up to 10 layers): not observed such tendency as piling up growth
- side effect (bleeding, fibrin-deposition, corneal haze/opacity, intraocular inflammation) ([1]; Test Example 1, eye drop): not observed any side effect

Structure (SMILES): C=C1/C(=C\C=C2/CCC[C@]3(C)[C@@H]([C@H](C)CCCC(C)(C)O)CC[C@@H]23)C[C@@H](O)C[C@@H]1O [calcitriol, 1α,25-dihydroxy vitamin D]
- side effect (bleeding, fibrin-deposition, corneal haze/opacity, intraocular inflammation) ([2]; Test Example 2, eye drop or oral): not observed any side effect
- transparency, eye drop (animal A) compared with oral (animal B) ([2]; after 28 days from the operation): better than that observed for the animal B
- posterior synechia ([2]; animal A, eye drop): did not cause any posterior synechia
- fibrin deposition in the anterior chamber ([2]; animal A, eye drop 0.5 μg/ml in sesame oil, 1 to 2 drops/dose/day): very low as compared with that observed for the animal C
- transparency of the anterior capsule [2, 3]: maintained desired transparency
- wrinkling and opacity of the anterior capsule [2, 3]: only slight wrinkling of the anterior capsule and opacity of the periphery thereof
- opacity and wrinkling of the anterior capsule ([2]; animal A, eye drop, after 28 days from the operation): slight opacity and wrinkling of the anterior capsule
- posterior synechia ([2]; animal B, oral): did not cause any posterior synechia
- fibrin deposition in the anterior chamber ([2]; animal B, oral 1 ml/dose/day of 0.5 μg/ml solution): very low as compared with that observed for the animal C
- opacity and wrinkling of the anterior capsule ([2]; animal B, oral, after 28 days from the operation): slight opacity and wrinkling of the anterior capsule
